This note sets out measurements from patent publication EP1715036A1, “Crystal structure of an Aurora-B/INCENP complex” (Boehringer Ingelheim International GmbH, priority 2005, dated 2006).

Common to all, as to type: biochemical
Assay [1] has as its target T1, wt-Aurora-B^60-361/INCENP^790-847 (Xenopus laevis, UniProt Q6DE08).
T1 construct: GST (N, cleaved yes); made in house; host or cells: E. coli BL21(DE3) with pUBS520 helper plasmid
Nature of the assay: radioactive kinase filterbinding assay, IC50 determination. As to conditions: wt enzyme complex at 5 nM; 100 µM ATP, 10 µM substrate peptide; spread printed ± 2 nM. How it is done: (§1) The ATP-KM value for the G96V mutant (83 µM) is similar to the wt enzyme (61 µM). The kinase assays are run in the presence of 100 µM ATP using 10 µM of a substrate peptide (see Materials and Methods).
(§2) Hesperadin is a potent inhibitor of human Aurora-B (Hauf, 2003). To determine whether Hesperadin inhibits also xAurora-B /INCENP complexes, a kinase filterbinding assay is employed for IC50-determinations. Both, the G96V and the wt enzyme complex are used at 5 nM concentration in the assays.
(§3) Purified xAurora-B/INCENP is snap frozen and stored for further use at -80°C in desalting buffer (50 mM Tris/Cl pH 8.0, 150mM NaCl, 0.1mM EDTA, 0.03% Brij-35, 10% glycerol, 1mM DTT). xAurora-B/INCENP is incubated in the presence or absence of a test compound dilutions in DMSO prior to addition of substrate peptide and P33-γ-ATP. Samples without a test compound or without substrate peptide are used as high or low-controls, respectively. IC50 values are determined using Graph Pad Prism software.
(§4) For the filter-binding kinase assay (reaction volume 50 ul /well), 96-well PP-Microplates (Greiner, 655 201) are used. To 10µl compound in 25% DMSO are added 30µl PROTEIN-MIX (166 µM ATP,1x kinase buffer [50mM Tris/Cl pH7.5,25mM MgC12, 25mM NaCl], 10-20 ng xAurora-B/INCENP) followed by an 15 min incubation at room temperature (agitating, 350rpm). […]

Assay [2] deals with T2, G96V-Aurora-B^60-361/INCENP^790-847 (Xenopus laevis, UniProt Q6DE08, G96V).
T2 construct: GST (N, cleaved yes); made in house; host or cells: E. coli BL21(DE3) with pUBS520 helper plasmid
T2 sequence (Q6DE08 60-361 G96V): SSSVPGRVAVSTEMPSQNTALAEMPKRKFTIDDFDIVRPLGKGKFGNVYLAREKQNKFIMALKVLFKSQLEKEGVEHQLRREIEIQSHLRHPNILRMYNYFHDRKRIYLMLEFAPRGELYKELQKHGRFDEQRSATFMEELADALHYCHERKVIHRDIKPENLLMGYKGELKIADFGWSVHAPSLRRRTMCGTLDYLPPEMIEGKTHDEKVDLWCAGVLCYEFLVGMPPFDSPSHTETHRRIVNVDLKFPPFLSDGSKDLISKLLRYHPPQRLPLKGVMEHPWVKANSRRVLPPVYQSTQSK
T2 sequence (O13024 790-847 partner limits assumed): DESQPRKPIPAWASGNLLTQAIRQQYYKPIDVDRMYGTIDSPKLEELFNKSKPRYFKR
The description is as above. As to conditions: G96V enzyme complex at 5 nM; 100 µM ATP, 10 µM substrate peptide; spread printed ±13 nM. How it is done:
as §1, §2, §3, §4

The target in the next assay is monomeric human Aurora-B (Homo sapiens, UniProt Q96GD4). Nature of the assay: kinase assay on monomeric human Aurora-B. As to conditions: assay conditions which allow similar signal/noise ratios.
monomeric human Aurora-B, sequence (Q96GD4 whole entry): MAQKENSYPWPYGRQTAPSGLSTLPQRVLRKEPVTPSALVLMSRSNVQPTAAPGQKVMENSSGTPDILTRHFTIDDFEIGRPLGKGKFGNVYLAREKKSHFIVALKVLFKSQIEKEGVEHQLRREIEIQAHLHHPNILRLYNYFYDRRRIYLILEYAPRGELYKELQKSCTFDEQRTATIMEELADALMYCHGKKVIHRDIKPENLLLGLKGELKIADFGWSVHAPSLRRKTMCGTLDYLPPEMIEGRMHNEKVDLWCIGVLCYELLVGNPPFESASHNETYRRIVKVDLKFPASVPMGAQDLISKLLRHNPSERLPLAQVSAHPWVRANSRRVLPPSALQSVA

T1 sequence (Q6DE08 60-361): as the sequence (Q6DE08 60-361 G96V) above, with V37G counted along it
T1 sequence (O13024 790-847 partner limits assumed): as the sequence (O13024 790-847 partner limits assumed) above

`CCS(=O)(=O)Nc1ccc2c(c1)/C(=C(/Nc1ccc(CN3CCCCC3)cc1)c1ccccc1)C(=O)N2` [Hesperadin]: the values for the 50% inhibitory concentration (IC50) (in assay [1]; in assay [2]; at monomeric human Aurora-B) were 7 nM, 25 nM and 44 nM, respectively.
